Test results reported in patent US9301938B2, “Composition and method for treatment of diabetes” (BioKier, Inc., priority 2009, dated 2016).

Experiments:
obese diabetic patients [1] = experiment: Oral Glucose Tolerance Test (OGTT) or standardized meal after a single dose; assay type: in vivo, human; conditions: overnight fasted patients
Method: Drug is delivered as an enema or suppositories made as described in^1 (containing 1 g of glutamine). 10 overnight fasted obese diabetic patients with impaired gut hormone effect^3 and/or impaired gut hormone secretion^4,5 are dosed rectally with one suppository (or enema). 30 minutes after drug administration, patients are subjected to Oral Glucose Tolerance Test (OGTT) or standardized meal. Blood is collected at the following time points: −30, 0, 5; 10, 15, 30, 60, 90, and 120 minutes. Blood is analyzed for levels of: glucose, insulin, GLP-1, PYY, other hormones and lipids. […] Drug is delivered as an enema or suppositories made as described in^1 (containing 2 g of butyric acid). 10 overnight fasted obese diabetic patients with impaired incretin effect^3 and/or impaired gut hormone secretion^4,5 are dosed rectally with one suppository (or enema). 30 minutes after drug administration, patients are subjected to Oral Glucose Tolerance Test (OGTT) or standardized meal. Blood is collected at the following time points: −30, 0, 5; 10, 15, 30, 60, 90, and 120 minutes. Blood is analyzed for levels of: glucose, insulin, GLP-1, PYY, other hormones and lipids. […] Tablets formulated with MMX technology (containing 1 g of glutamine) are made as described in^2. 10 overnight fasted obese diabetic patients with impaired gut hormone effect^3 and/or impaired gut hormone secretion^4,5 are dosed with one MMX tablet at 8:00 AM. 4 hrs after drug administration, patients are subjected to Oral Glucose Tolerance Test (OGTT) or standardized meal. Blood is collected at the following time points: −30, 0, 5; 10, 15, 30, 60, 90, and 120 minutes. Blood is analyzed for levels of: glucose, insulin, GLP-1, PYY, other hormones and lipids. […] Tablets formulated with MMX technology (containing 2 g of butyric acid) are made as described in^2. 10 overnight fasted obese diabetic patients with impaired gut hormone effect^3 and/or impaired gut hormone secretion^4,5 are dosed with one MMX tablet at 8:00 AM. 4 hrs after drug administration, patients are subjected to Oral Glucose Tolerance Test (OGTT) or standardized meal. Blood is collected at the following time points: −30, 0, 5; 10, 15, 30, 60, 90, and 120 minutes. Blood is analyzed for levels of: glucose, insulin, GLP-1, PYY, other hormones and lipids.

obese diabetic patients [2] = experiment: Six-week once-daily MMX tablet treatment with OGTT or standardized meal; assay type: in vivo, human; conditions: one MMX tablet daily before first meal for six weeks
Method: Tablets formulated with MMX technology (containing 1 g of glutamine) are made as described in^2. 10 obese diabetic patients with impaired incretin effect^3 and/or impaired incretin secretion^4,5 are dosed with one MMX tablet at 8:00 AM before first meal for six (6) weeks. HbA1c, fasting glucose and insulin are measured before treatment and at 1, 2, and 6 weeks after initiation of the treatment. Additionally, patients are subjected at these times to Oral Glucose Tolerance Test (OGTT) or standardized meal. Blood is collected at the following time points: −30, 0, 5; 10, 15, 30, 60, 90, and 120 minutes. Blood is analyzed for levels of: glucose, insulin, GLP-1, PYY, other hormones and lipids. […] Tablets formulated with MMX technology (containing 2 g of butyric acid) are made as described in^2. 10 obese diabetic patients with impaired gut hormone effect^3 and/or impaired gut hormone secretion^4,5 are dosed with one MMX tablet at 8:00 AM before first meal for six (6) weeks. HbA1c, fasting glucose and insulin are measured before the treatment and at 1, 2, and 6 weeks after initiation of the treatment. Additionally, patients are subjected at these times to Oral Glucose Tolerance Test (OGTT) or standardized meal. Blood is collected at the following time points: −30, 0, 5; 10, 15, 30, 60, 90, and 120 min. Blood is analyzed for levels of: glucose, insulin, GLP-1, PYY, other hormones and lipids.

[3] = one MMX tablet orally, 4 hrs before OGTT or standardized meal
[4] = one MMX tablet orally, 4 hrs before standardized meal
[5] = one suppository or enema rectally, 30 minutes before OGTT or standardized meal
[6] = one suppository or enema rectally, 30 minutes before standardized meal

SMILES	Glucose levels (obese diabetic patients [1]; [3])	lipids levels (after standardized meal) (obese diabetic patients [1]; [4])	Glucose levels (obese diabetic patients [1]; [5])	lipids levels (after standardized meal) (obese diabetic patients [1]; [6])	Glucose levels (obese diabetic patients [2])	triglycerides levels versus pre-treatment (obese diabetic patients [2])
CCCC(=O)O [butyric acid]	decrease	decrease	decrease	decrease	decrease	lower than pre-treatment levels
NC(=O)CC[C@H](N)C(=O)O [glutamine]	decrease	decrease	decrease	decrease	decrease	lower than pre-treatment levels
